Assay results from patent US20130116241A1, “NOVEL INHIBITOR COMPOUNDS OF PHOSPHODIESTERASE TYPE 10A” (AbbVie Inc., priority 2011, published 2013).
Structures can show the parent of a compound that is named as a salt. Where two headings read alike, the source gives them in different places.

Target: human PDE10A (UniProt Q9Y233)
Assay: Measurement of PDE activity (recombinant enzyme, HTRF cAMP kit)
Format: biochemical
Conditions: Table 1, substrate 20 nM for PDE10, 60 minutes at 29 C
In short: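 HTRF detection of cAMP left after hydrolysis, expressed as percent of uninhibited control to derive IC50. Reaction: serially diluted inhibitor mixed with recombinant enzyme, started with 20 nM cAMP, 60 min at 29 °C in Tris-HCl pH 7.5 buffer containing MgCl2 and BSA.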

Chain of human PDE10A (Q9Y233 290-1055 limits assumed): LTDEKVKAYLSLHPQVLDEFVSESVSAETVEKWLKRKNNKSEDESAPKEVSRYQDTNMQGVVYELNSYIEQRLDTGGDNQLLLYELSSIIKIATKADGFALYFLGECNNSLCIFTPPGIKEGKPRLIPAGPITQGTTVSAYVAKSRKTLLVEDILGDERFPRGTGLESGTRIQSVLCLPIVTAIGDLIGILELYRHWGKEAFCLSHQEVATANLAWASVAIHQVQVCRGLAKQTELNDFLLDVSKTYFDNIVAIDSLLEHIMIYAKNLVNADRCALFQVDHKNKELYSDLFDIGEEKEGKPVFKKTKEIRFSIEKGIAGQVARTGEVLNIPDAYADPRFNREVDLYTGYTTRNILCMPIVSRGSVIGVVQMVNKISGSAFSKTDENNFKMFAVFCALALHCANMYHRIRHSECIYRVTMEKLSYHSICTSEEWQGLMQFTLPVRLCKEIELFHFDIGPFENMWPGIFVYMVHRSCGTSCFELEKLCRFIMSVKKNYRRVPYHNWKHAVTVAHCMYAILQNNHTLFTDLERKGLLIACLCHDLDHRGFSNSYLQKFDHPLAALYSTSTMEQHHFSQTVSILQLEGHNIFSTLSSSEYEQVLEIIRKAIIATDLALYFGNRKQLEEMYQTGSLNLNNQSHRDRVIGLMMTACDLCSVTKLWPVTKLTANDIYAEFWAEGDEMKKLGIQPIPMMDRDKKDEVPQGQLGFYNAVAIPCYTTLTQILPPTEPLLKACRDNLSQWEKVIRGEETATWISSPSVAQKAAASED

Structure (SMILES)	IC50 (read-out: IC50) [nM]	IC50 [nM]
O=c1c2c(-c3ccncc3)coc2ccn1CCc1cn2ccccc2n1 [Example 230, 5-(2-(Imidazo[1,2-a]pyridin-2-yl)ethyl)-3-(pyridin-4-yl)furo[3,2-c]pyridin-4(5H)-one hydrochloride]	100 to 200	–
O=c1c2c(-c3cncnc3)coc2ccn1CCc1ccc2ccccc2n1 [Example 231, 3-(Pyrimidin-5-yl)-5-(2-(quinolin-2-yl)ethyl)furo[3,2-c]pyridin-4(5H)-one]	< 100	–
C=C(Cn1ncc2nccc(-c3ccncc3)c2c1=O)c1ccc2ccccc2n1 [Example 234, 4-(Pyridin-4-yl)-6-(2-(quinolin-2-yl)allyl)pyrido[2,3-d]pyridazin-5(6H)-one]	< 100	–
O=c1c2c(-c3cccnc3)cccc2ccn1C1CC1c1ccc2ccccc2n1 (stereo not drawn) [Example 239, anti 8-(pyridin-3-yl)-2-(2-(quinolin-2-yl)cyclopropyl)isoquinolin-1(2H)-one hydrochloride]	< 100	–
O=c1c2c(N3CCC[C@H](O)C3)cccc2ccn1C1CC1c1ccc2ccccc2n1 (stereo partly drawn) [Example 244, anti 8-((3S)-3-hydroxypiperidin-1-yl)-2-(2-(quinolin-2-yl)cyclopropyl)isoquinolin-1(2H)-one (2E)-but-2-enedioate]	< 100	–
O=c1c2c(N3CCOCC3)cccc2ccn1C1CC1c1ccc2ccccc2n1 (stereo not drawn) [Example 246, anti 8-morpholino-2-(2-(quinolin-2-yl)cyclopropyl)isoquinolin-1(2H)-one]	< 100	–
O=c1c2c(N3CC[C@H](O)C3)cccc2ccn1C1CC1c1ccc2ccccc2n1 (stereo partly drawn) [Example 249, anti 8-((3S)-3-hydroxypyrrolidin-1-yl)-2-(2-(quinolin-2-yl)cyclopropyl)isoquinolin-1(2H)-one di[(2E)-but-2-enedioate]]	200 to 500	–
O=c1c2c(N3CC[C@@H](O)C3)cccc2ccn1C1CC1c1ccc2ccccc2n1 (stereo partly drawn) [Example 250, anti 8-((3R)-3-hydroxypyrrolidin-1-yl)-2-(2-(quinolin-2-yl)cyclopropyl)isoquinolin-1(2H)-one (2E)-but-2-enedioate]	100 to 200	–
O=c1c2c(-c3ccncc3)cccc2ccn1C1CC1c1ccc2ccccc2n1 (stereo not drawn) [Example 256, syn 8-(pyridin-4-yl)-2-(2-(quinolin-2-yl)cyclopropyl)isoquinolin-1(2H)-one hydrochloride]	< 100	–
O=c1c2c(C3CCOCC3)cccc2ccn1C1CC1c1ccc2ccccc2n1 (stereo not drawn) [Example 257, anti 2-(2-(quinolin-2-yl)cyclopropyl)-8-(tetrahydro-2H-pyran-4-yl)isoquinolin-1(2H)-one]	< 100	–
O=c1c2c(N3CCC(C(F)F)C3)cccc2ccn1C1CC1c1ccc2ccccc2n1 (stereo not drawn) [Example 262, anti 8-(3-(difluoromethyl)pyrrolidin-1-yl)-2-(2-(quinolin-2-yl)cyclopropyl)isoquinolin-1(2H)-one, trifluoroacetate]	100 to 200	–
O=c1c2c(N3C4CCC3COC4)cccc2ccn1C1CC1c1ccc2ccccc2n1 [Example 263, anti 8-((1R,5S)-3-oxa-8-azabicyclo[3.2.1]octan-8-yl)-2-(2-(quinolin-2-yl)cyclopropyl)isoquinolin-1(2H)-one]	–	< 100
O=c1c2c(N3C[C@H]4CC[C@@H](C3)O4)cccc2ccn1C1CC1c1ccc2ccccc2n1 (stereo partly drawn) [Example 266, 8-((1R,5S)-8-oxa-3-azabicyclo[3.2.1]octan-3-yl)-2-(2-(quinolin-2-yl)cyclopropyl)isoquinolin-1(2H)-one]	< 100	–
O=c1c2c(-c3ccoc3)cccc2ccn1C1CC1c1ccc2ccccc2n1 (stereo not drawn) [Example 268, anti 8-(furan-3-yl)-2-(2-(quinolin-2-yl)cyclopropyl)isoquinolin-1(2H)-one]	< 100	–
O=c1c2c(C3=COCC3)cccc2ccn1C1CC1c1ccc2ccccc2n1 (stereo not drawn) [Example 269, anti 8-(4,5-dihydrofuran-3-yl)-2-(2-(quinolin-2-yl)cyclopropyl)isoquinolin-1(2H)-one]	< 100	–
O=c1c2c(-c3cccnc3)cccc2ccn1C1CC1c1ccc2cc(F)ccc2n1 (stereo not shown) [Example 272]	< 100	–
O=c1c2c(-c3ccncc3)cccc2ccn1C1CC1c1ccc2cc(F)ccc2n1 (stereo not shown) [Example 274]	< 100	–
O=c1c2c(-c3ccncc3)cccc2c(F)cn1C1CC1c1ccc2ccccc2n1 (stereo not drawn) [Example 275, anti 4-fluoro-8-(pyridin-4-yl)-2-(2-(quinolin-2-yl)cyclopropyl)isoquinolin-1(2H)-one]	< 100	–
O=c1c2c(-c3ccncc3)cncc2cnn1CCc1ccc2ccccc2n1 [Example 301, 8-(pyridin-4-yl)-2-[2-(quinolin-2-yl)ethyl]pyrido[3,4-d]pyridazin-1(2H)-one]	< 100	–
O=c1c2c(-c3ccncc3)csc2c(F)cn1C1CC1c1ccc2ccccc2n1 (stereo not shown) [compound 279]	< 100	–
O=c1c2c(-c3ccnc(F)c3)csc2ccn1C1CC1c1ccc2cc(F)ccc2n1 (stereo not shown) [compound 280]	< 100	–
O=c1c2c(-c3ccncc3)csc2ccn1C1CC1c1ccc2cc(F)ccc2n1 (stereo not shown) [compound 281]	< 100	–
O=c1c2c(-c3cncnc3)csc2ccn1C1CC1c1ccc2ccccc2n1 (stereo not shown) [compound 282]	< 100	–
O=c1c2c(-c3ccc(F)nc3)csc2ccn1C1CC1c1ccc2ccccc2n1 (stereo not shown) [compound 283]	< 100	–
Cc1ncc(-c2csc3ccn(C4CC4c4ccc5ccccc5n4)c(=O)c23)cn1 (stereo not shown) [compound 284]	< 100	–
O=c1c2c(-c3ccnnc3)csc2ccn1C1CC1c1ccc2ccccc2n1 (stereo not shown) [compound 285]	< 100	–

Structure (SMILES)	IC50 (read-out: IC50) [nM]	IC50 [nM]
O=c1c2c(N3CCOCC3)csc2ccn1C1CC1c1ccc2ccccc2n1 (stereo not shown) [compound 287]	< 100	–
O=c1c2c(-c3cccnc3)csc2ccn1C1CC1c1ccc2sccc2n1 (stereo not shown) [compound 288]	< 100	–
O=c1c2c(-c3cccnc3)csc2ccn1C1CC1c1ccc2ccccc2n1 (stereo not shown) [compound 289]	< 100	–
O=c1c2c(-c3cncnc3)csc2cnn1C1CC1c1ccc2ccccc2n1 (stereo not shown) [compound 290]	< 100	–
O=c1c2c(-c3ccncc3)csc2cnn1C1CC1c1ccc2sccc2n1 (stereo not shown) [compound 291]	< 100	–
O=c1c2c(-c3ccncc3)csc2ccn1C1CC1c1ccc2sccc2n1 (stereo not shown) [compound 292]	< 100	–
O=c1c2c(-c3ccncc3)csc2ccn1C1CC1c1ccc2ccccc2n1 (stereo not shown) [compound 293]	< 100	–
O=c1c2c(-c3ccncc3)csc2cnn1C1CC1c1ccc2ccccc2n1 (stereo not shown) [compound 295]	< 100	–
O=c1c2cccc(-c3cncnc3)c2ccn1C1CC1c1ccc2ccccc2n1 (stereo not shown) [compound 296]	100 to 200	–
O=c1c2cccc(-c3ccncc3)c2ccn1C1CC1c1ccc2ccccc2n1 (stereo not shown) [compound 297]	< 100	–
O=c1c2cccc(-c3cccnc3)c2ccn1C1CC1c1ccc2ccccc2n1 (stereo not shown) [compound 298]	100 to 200	–
O=c1c2cccc(N3CCOCC3)c2ccn1C1CC1c1ccc2ccccc2n1 (stereo not shown) [compound 299]	< 100	–
Cn1cnc(-c2nn(CCc3cn4ccccc4n3)c(=O)c3c(-c4ccncc4)csc23)c1 [compound 302, 5-[2-(imidazo[1,2-a]pyridin-2-yl)ethyl]-7-(1-methyl-1H-imidazol-4-yl)-3-(pyridin-4-yl)thieno[2,3-d]pyridazin-4(5H)-one]	< 100	–
Cn1cc(-c2nn(CCc3cn4ccccc4n3)c(=O)c3c(-c4ccncc4)csc23)cn1 [compound 303, 5-[2-(imidazo[1,2-a]pyridin-2-yl)ethyl]-7-(1-methyl-1H-pyrazol-4-yl)-3-(pyridin-4-yl)thieno[2,3-d]pyridazin-4(5H)-one]	< 100	–
O=c1c2c(-c3ccncc3)csc2c(-c2cccnc2)nn1CCc1cn2ccccc2n1 [compound 304, 5-[2-(imidazo[1,2-a]pyridin-2-yl)ethyl]-7-(pyridin-3-yl)-3-(pyridin-4-yl)thieno[2,3-d]pyridazin-4(5H)-one]	< 100	–
Cc1cc2ccccc2nc1CCn1ccc2scc(-c3ccncc3)c2c1=O [compound 306, 5-[2-(3-methylquinolin-2-yl)ethyl]-3-(pyridin-4-yl)thieno[3,2-c]pyridin-4(5H)-one]	< 100	–
O=c1c2c(-c3ccncc3)csc2ccn1CCc1ccc2cccc(F)c2n1 [compound 307, 5-[2-(8-fluoroquinolin-2-yl)ethyl]-3-(pyridin-4-yl)thieno[3,2-c]pyridin-4(5H)-one]	200 to 500	–
O=c1c2c(-c3cccnc3)csc2ccn1CCc1ccc2cc(F)ccc2n1 [compound 308, hydrochloride]	< 100	–
O=c1c2c(-c3ccncc3)csc2ccn1CCc1ccc2cc(F)ccc2n1 [compound 309, 5-[2-(6-fluoroquinolin-2-yl)ethyl]-3-(pyridin-4-yl)thieno[3,2-c]pyridin-4(5H)-one]	< 100	–
O=c1c2c(-c3cccnc3)csc2ccn1CCc1cn2ccccc2n1 [compound 310, 5-[2-(imidazo[1,2-a]pyridin-2-yl)ethyl]-3-(pyridin-3-yl)thieno[3,2-c]pyridin-4(5H)-one]	< 100	–
O=c1c2c(-c3ccncc3)csc2cnn1CCc1cnc2ccccc2n1 [compound 311, hydrochloride]	100 to 200	–
O=c1c2c(-c3ccncc3)csc2cnn1CCc1ccc2ncccc2n1 [compound 312, 5-[2-(1,5-naphthyridin-2-yl)ethyl]-3-(pyridin-4-yl)thieno[2,3-d]pyridazin-4(5H)-one]	< 100	–
O=c1c2c(-c3cc[nH]n3)csc2cnn1CCc1ccc2ccccc2n1 [compound 315, 3-(1H-pyrazol-3-yl)-5-[2-(quinolin-2-yl)ethyl]thieno[2,3-d]pyridazin-4(5H)-one]	< 100	–
O=c1c2c(-c3ccncc3)csc2cnn1CCc1nc2ccccc2[nH]1 [compound 317, hydrochloride]	< 100	–
O=c1c2c(-c3ccncc3)csc2cnn1CCc1ccc2cc(Cl)ccc2n1 [compound 318, hydrochloride]	200 to 500	–
O=c1c2c(C#Cc3cccnc3)csc2cnn1CCc1ccc2ccccc2n1 [compound 319, hydrochloride]	< 100	–
